Experiment: xn = mol fraction of the nth substance listed
Settings: Gas; for mass density: Gas pipette; for viscosity: Oscillating disk viscometry

COC [dimethyl ether] + N#N
Settings	mass density [kg/m3]	viscosity [mPa·s]
298.15 K, 101 kPa, x1 = 0.256	1.178	0.01483
298.15 K, 101 kPa, x1 = 0.449	1.433	0.013
298.15 K, 101 kPa, x1 = 0.752	1.783	0.01063
298.15 K, 101 kPa, x1 = 1	1.91	0.00922
298.15 K, 262 kPa, x1 = 0.752	4.839	0.0106
298.15 K, 264 kPa, x1 = 0.449	4.075	0.013
298.15 K, 296 kPa, x1 = 1	6.081	0.00918
298.15 K, 305 kPa, x1 = 0.256	4.298	0.01488
298.15 K, 475 kPa, x1 = 1	10.06	0.0091
298.15 K, 614 kPa, x1 = 0.752	11.78	0.0106
298.15 K, 640 kPa, x1 = 0.449	9.965	0.01303
298.15 K, 683 kPa, x1 = 0.256	9.296	0.01494
323.15 K, 101 kPa, x1 = 0.228	1.08	0.01629
323.15 K, 101 kPa, x1 = 0.449	1.144	0.01402
323.15 K, 101 kPa, x1 = 0.698	1.303	0.012
323.15 K, 101 kPa, x1 = 1	1.652	0.00997
323.15 K, 270 kPa, x1 = 0.698	4.353	0.01201
323.15 K, 295 kPa, x1 = 1	5.561	0.00996
323.15 K, 321 kPa, x1 = 0.449	4.449	0.01406
323.15 K, 354 kPa, x1 = 0.228	4.544	0.01632
323.15 K, 485 kPa, x1 = 0.698	7.499	0.01201
323.15 K, 486 kPa, x1 = 0.449	6.864	0.01408
323.15 K, 490 kPa, x1 = 1	9.31	0.00993
323.15 K, 553 kPa, x1 = 0.228	6.768	0.01636
323.15 K, 695 kPa, x1 = 0.698	11.57	0.01206
323.15 K, 714 kPa, x1 = 0.449	10.2	0.01408
323.15 K, 736 kPa, x1 = 1	14.71	0.00995
323.15 K, 910 kPa, x1 = 0.228	11.15	0.01636
323.15 K, 946 kPa, x1 = 0.698	15.73	0.01208
323.15 K, 976 kPa, x1 = 1	22.53	0.00994
323.15 K, 990 kPa, x1 = 0.449	13.89	0.01413
348.15 K, 101 kPa, x1 = 0.313	1.11	0.01638
348.15 K, 101 kPa, x1 = 0.491	1.237	0.01463
348.15 K, 101 kPa, x1 = 0.661	1.332	0.01319
348.15 K, 101 kPa, x1 = 1	1.332	0.01081
348.15 K, 294 kPa, x1 = 0.313	3.552	0.01639
348.15 K, 305 kPa, x1 = 1	5.17	0.01081
348.15 K, 306 kPa, x1 = 0.661	4.345	0.01319
348.15 K, 325 kPa, x1 = 0.491	4.155	0.01468
348.15 K, 519 kPa, x1 = 0.661	7.453	0.01321
348.15 K, 520 kPa, x1 = 0.313	6.153	0.01644
348.15 K, 525 kPa, x1 = 0.491	6.977	0.01471
348.15 K, 551 kPa, x1 = 1	9.705	0.01082
348.15 K, 992 kPa, x1 = 0.661	14.43	0.01327
348.15 K, 998 kPa, x1 = 0.313	11.96	0.0165
348.15 K, 1006 kPa, x1 = 1	19.03	0.01085
348.15 K, 1021 kPa, x1 = 0.491	13.54	0.01476
348.15 K, 1561 kPa, x1 = 1	35.81	0.01094
348.15 K, 1850 kPa, x1 = 1	44.66	0.01106
348.15 K, 1909 kPa, x1 = 0.491	26.07	0.01499
348.15 K, 2053 kPa, x1 = 0.661	33.49	0.01353
348.15 K, 2095 kPa, x1 = 0.313	25.47	0.01672
373.15 K, 101 kPa, x1 = 0.281	0.665	0.01773
373.15 K, 101 kPa, x1 = 0.522	0.95	0.01534
373.15 K, 101 kPa, x1 = 0.82	1.171	0.01282
373.15 K, 101 kPa, x1 = 1	1.235	0.01161
373.15 K, 301 kPa, x1 = 0.522	3.577	0.01535
373.15 K, 305 kPa, x1 = 1	4.748	0.0116
373.15 K, 312 kPa, x1 = 0.82	4.4	0.01285
373.15 K, 325 kPa, x1 = 0.281	3.419	0.01777
373.15 K, 500 kPa, x1 = 1	7.787	0.01162
373.15 K, 516 kPa, x1 = 0.82	7.217	0.01285
373.15 K, 520 kPa, x1 = 0.281	5.508	0.01777
373.15 K, 530 kPa, x1 = 0.522	6.584	0.01539
373.15 K, 1011 kPa, x1 = 0.281	10.64	0.01784
373.15 K, 1028 kPa, x1 = 1	16.71	0.01168
373.15 K, 1029 kPa, x1 = 0.522	12.76	0.0155
373.15 K, 1038 kPa, x1 = 0.82	15.16	0.01295
373.15 K, 1915 kPa, x1 = 0.281	20.8	0.01801
373.15 K, 1940 kPa, x1 = 1	35.33	0.01191
373.15 K, 1952 kPa, x1 = 0.82	30.93	0.01314
373.15 K, 2036 kPa, x1 = 0.522	25.83	0.01568
373.15 K, 2505 kPa, x1 = 1	51.25	0.01219
373.15 K, 2875 kPa, x1 = 1	67.49	0.01247
373.15 K, 2895 kPa, x1 = 0.82	51.12	0.01352
373.15 K, 3005 kPa, x1 = 0.281	33.02	0.01823
373.15 K, 3049 kPa, x1 = 1	74.07	0.01261
373.15 K, 3065 kPa, x1 = 0.522	40.84	0.01599
398.15 K, 101 kPa, x1 = 0.246	0.853	0.01917
398.15 K, 101 kPa, x1 = 0.525	0.885	0.01617
398.15 K, 101 kPa, x1 = 0.78	0.727	0.01397
398.15 K, 101 kPa, x1 = 1	0.948	0.01234
398.15 K, 300 kPa, x1 = 1	4.392	0.01237
398.15 K, 310 kPa, x1 = 0.246	2.938	0.01921
398.15 K, 315 kPa, x1 = 0.78	4.107	0.01399
398.15 K, 317 kPa, x1 = 0.525	3.633	0.01622
398.15 K, 516 kPa, x1 = 0.525	5.877	0.01623
398.15 K, 519 kPa, x1 = 0.246	5.15	0.01919
398.15 K, 531 kPa, x1 = 1	7.678	0.01239
398.15 K, 533 kPa, x1 = 0.78	7.077	0.01401
398.15 K, 992 kPa, x1 = 1	15.1	0.01244
398.15 K, 1009 kPa, x1 = 0.78	13.52	0.0141
398.15 K, 1020 kPa, x1 = 0.525	11.91	0.01629
398.15 K, 1048 kPa, x1 = 0.246	10.02	0.01926
398.15 K, 2018 kPa, x1 = 0.525	23.95	0.01651
398.15 K, 2030 kPa, x1 = 0.246	19.75	0.01943
398.15 K, 2030 kPa, x1 = 0.78	28.37	0.01433
398.15 K, 2085 kPa, x1 = 1	34.47	0.01274
398.15 K, 2973 kPa, x1 = 0.246	29.35	0.0196
398.15 K, 2985 kPa, x1 = 1	54.66	0.01317
398.15 K, 2986 kPa, x1 = 0.78	44.58	0.01465
398.15 K, 3015 kPa, x1 = 0.525	36.43	0.01675
398.15 K, 3735 kPa, x1 = 0.78	58.58	0.015
398.15 K, 3839 kPa, x1 = 0.246	37.95	0.01974
398.15 K, 3905 kPa, x1 = 0.525	47.93	0.01701
398.15 K, 3965 kPa, x1 = 1	87.68	0.0141
398.15 K, 4480 kPa, x1 = 1	112.3	0.01504
398.15 K, 4569 kPa, x1 = 0.78	77.25	0.0155
398.15 K, 4620 kPa, x1 = 1	122.4	0.01543
398.15 K, 4730 kPa, x1 = 0.525	59.49	0.01731
398.15 K, 4860 kPa, x1 = 0.246	48.5	0.01995
423.15 K, 101 kPa, x1 = 0.272	0.662	0.01978
423.15 K, 101 kPa, x1 = 0.527	0.694	0.01721
423.15 K, 101 kPa, x1 = 0.764	1.072	0.01516
423.15 K, 101 kPa, x1 = 1	1.009	0.01332
423.15 K, 310 kPa, x1 = 1	4.289	0.01333
423.15 K, 314 kPa, x1 = 0.272	2.901	0.01984
423.15 K, 316 kPa, x1 = 0.527	3.343	0.01723
423.15 K, 320 kPa, x1 = 0.764	4.447	0.01522
423.15 K, 505 kPa, x1 = 0.527	5.456	0.01726
423.15 K, 505 kPa, x1 = 1	6.812	0.01335
423.15 K, 520 kPa, x1 = 0.764	6.591	0.01524
423.15 K, 529 kPa, x1 = 0.272	4.699	0.01986
423.15 K, 985 kPa, x1 = 1	13.75	0.01342
423.15 K, 1021 kPa, x1 = 0.764	12.33	0.0153
423.15 K, 1040 kPa, x1 = 0.272	9.555	0.01994
423.15 K, 1047 kPa, x1 = 0.527	11.35	0.01734
423.15 K, 2013 kPa, x1 = 0.527	22.17	0.01753
423.15 K, 2022 kPa, x1 = 1	30.21	0.0137
423.15 K, 2030 kPa, x1 = 0.272	18.92	0.02008
423.15 K, 2060 kPa, x1 = 0.764	25.8	0.01558
423.15 K, 2926 kPa, x1 = 0.764	38.25	0.01581
423.15 K, 2955 kPa, x1 = 0.272	27.91	0.02018
423.15 K, 2995 kPa, x1 = 0.527	33.84	0.01769
423.15 K, 3004 kPa, x1 = 1	48.47	0.01413
423.15 K, 3970 kPa, x1 = 0.764	54.49	0.01621
423.15 K, 3973 kPa, x1 = 0.527	45.63	0.01796
423.15 K, 4000 kPa, x1 = 0.272	37.87	0.02038
423.15 K, 4015 kPa, x1 = 1	71.3	0.01477
423.15 K, 4495 kPa, x1 = 1	86.57	0.01521
423.15 K, 4873 kPa, x1 = 0.527	56.58	0.01822
423.15 K, 4894 kPa, x1 = 0.764	69.38	0.01664
423.15 K, 4911 kPa, x1 = 0.272	46.7	0.02057
423.15 K, 4912 kPa, x1 = 1	99.15	0.01568
